Data taken from PubChem BioAssay AID588614 (The Scripps Research Institute Molecular Screening Center, 2011).
Calls of active or inactive are those of the source.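 How the source made its calls: active means Level of the kinase MAPK1 protein lowered or raised by at least 30% versus solvent-only cells; inactive means change under 30% either way.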

Assays:
[1] = system: DLD-1 cells, ERK1/2 western blot, 24 h; assay: MAPK1 abundance shift in treated cells – DLD1 cells, chemiluminescent western blot, powder samples, counter-screen for KLF5 inhibitor project, late-stage follow-up (AID 588614); conditions: measured here: ERK1/2 band fold change vs DMSO; at 10 µM
[2] = molecular target: Mitogen-activated protein kinase 1 (Homo sapiens) (UniProt P28482); assay: as above; conditions: DLD-1 cells, ERK1/2 western blot, 24 h; at 10 µM; stronger effect = higher value
Chain of Mitogen-activated protein kinase 1 (Homo sapiens) (P28482 whole entry, looked up): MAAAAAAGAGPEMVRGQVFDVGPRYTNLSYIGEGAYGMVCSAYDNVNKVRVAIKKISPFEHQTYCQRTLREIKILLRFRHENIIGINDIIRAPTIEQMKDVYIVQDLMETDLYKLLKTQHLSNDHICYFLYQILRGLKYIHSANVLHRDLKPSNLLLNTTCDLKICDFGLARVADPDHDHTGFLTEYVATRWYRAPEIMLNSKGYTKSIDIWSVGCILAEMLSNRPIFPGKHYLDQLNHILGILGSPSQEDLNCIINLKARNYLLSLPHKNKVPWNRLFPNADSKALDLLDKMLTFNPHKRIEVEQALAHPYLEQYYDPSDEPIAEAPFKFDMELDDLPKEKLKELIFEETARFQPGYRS

| inhibition [2] | SMILES | fold change [1] |
| --- | --- | --- |
| 21.5% (inactive) | CN(C(=O)CNC(=O)/C=C/c1cccc(Cl)c1)C1CCS(=O)(=O)CC1 | -1.27 |
| 20.8% (inactive) | CN(C(=O)CNC(=O)/C=C/c1cccc(Cl)c1)C1CCS(=O)(=O)C1 (stereo unspecified) | -1.26 |
| 19.8% (inactive) | CN(C(=O)COC(=O)/C=C/c1cccc([N+](=O)[O-])c1)C1CCS(=O)(=O)C1 (stereo unspecified) | -1.25 |
